US7655429B2, “Immunoassays for topiramate” (Seradyn, Inc., priority 2004, dated 2010)

What was measured:
[1] = cited from earlier work
[2] = system: sheep polyclonal antibodies that bind with topiramate prepared from immunogen (18); assay: QMS homogeneous particle-enhanced immunoturbidimetric assay; type: binding; conditions: Topiramate antigen (19) coated Latex, Polyclonal antibody R1
Protocol: An immunoturbidimetric or QMS® assay, which is a homogeneous particle-enhanced immunoturbidimetric experiment, is performed to test the polyclonal antibodies prepared as in Example 21. […] The assay procedure is initiated by diluting the specimen because the specimens with topiramate can be used to generate results that exceed the highest calibrator value. As such, the specimens may be diluted manually or by using an automated onboard dilution protocol. The assay is based on competition for topiramate-specific antibody binding sites between drug in the sample and drug coated onto a microparticle of topiramate-coated microparticle reagent is rapidly agglutinated in the presence of the anti-topiramate antibody reagent and in the absence of any competing drug of the sample. The rate of absorbance change is measured photometrically, and is directly proportional to the rate of agglutination of the particles. […] A concentration-dependent classic agglutination inhibition curve can be obtained, with maximum rate of agglutination at the lowest topiramate concentration (at zero μg/ml) and the lowest agglutination rate at the highest topiramate concentration (32 μg/ml). The QMS® topiramate assay is initiated after the being calibrated using a full calibration (6-point) procedure. The QMS® is performed as directed in operation manuals in accordance with the average skill of one in the art.

[3] = system: anti-topiramate antibodies prepared with immunogen (17); assay: ELISA binding inhibition study (avidity), free topiramate versus coated antigen; set-up: species or system Rabbit
Protocol: ELISA plates for use in an ELISA assay are prepared in order to study the polyclonal antibody prepared as described in Example 21. As such, various topiramate antigens (16), (19), and (20) are coated on different ELISA plates before being subjected to the anti-topiramate antibody and competing free topiramate. More particularly, the topiramate antigens are diluted in coating buffer, and then added to the wells of ELISA plate. After the ELISA plate is incubated for 60 min at 37° C., the solvent in the coating buffer is decanted and a blocking buffer is added to the plate. The plate is incubated again for 60 min at 37° C., and the solvent in the blocking buffer is decanted from the plate. The ELISA plate is then stored with the blocking agent in the wells at 2-8° C. for up to 1 week. The avidity of the anti-topiramate antibodies prepared with immunogen (17) for topiramate analogs are determined by a binding inhibition study. As such, samples are prepared in 1 mL of PBS at pH 7.4 with 0.1% BSA. A composition having 30% Bmax titer or 50% Bmax titer is used to divide the obtained titer value into approximately half the titer value. Using 30% Bmax, an antibody titer of 1:10,000 is diluted to 1:5,000 during the sample preparation stage. About 50 μL of topiramate at different concentrations or calibrator values, (0, 2, 4, 8, 16, 32 μg/ml) are then applied to a plate as prepared in accordance with Example 22. About 50 μL of the diluted antibody is dispensed into the plate, and the compositions in the plate are mixed for 1 min on a horizontal plate shaker. The plate is characterized by a first row not containing topiramate or anti-topiramate antibody, wherein the first row is used as a negative control. A second row not containing topiramate is used as the positive control. The plate is incubated for 60 min, and washed three times with 250 μL of PBS at pH 7.4 with 0.05% tween. About 125 μL of a diluted second antibody conjugate such as antigens (16), (19), or (20), in PBS at pH 7.4 is added to each well of the plate. Titer is determined experimentally by the plate being incubated for 60 min at 37° C. and washed 3 times with 250 μL PBS, pH 7.4 with 0.05% tween. Subsequently, about 125 μL of ABTS substrate is added to each well of the plate and incubated for 20 min.

[4] = dose escalation add-on studies, morning serum
[5] = Antigen 16, Topiramate 2 μg/ml, Rabbit No. 5481
[6] = Antigen 16, Topiramate 2 μg/ml, Rabbit No. 5492
[7] = Antigen 16, Topiramate 4 μg/ml, Rabbit No. 5481
[8] = Antigen 16, Topiramate 4 μg/ml, Rabbit No. 5492
[9] = Antigen 16, Topiramate 8 μg/ml, Rabbit No. 5481
[10] = Antigen 16, Topiramate 8 μg/ml, Rabbit No. 5492
[11] = Antigen 16, Topiramate 16 μg/ml, Rabbit No. 5481
[12] = Antigen 16, Topiramate 16 μg/ml, Rabbit No. 5492
[13] = Antigen 16, Topiramate 32 μg/ml, Rabbit No. 5481
[14] = Antigen 16, Topiramate 32 μg/ml, Rabbit No. 5492
[15] = Antigen 19, Topiramate 2 μg/ml, Rabbit No. 5481
[16] = Antigen 19, Topiramate 2 μg/ml, Rabbit No. 5492
[17] = Antigen 19, Topiramate 4 μg/ml, Rabbit No. 5481
[18] = Antigen 19, Topiramate 4 μg/ml, Rabbit No. 5492
[19] = Antigen 19, Topiramate 8 μg/ml, Rabbit No. 5481
[20] = Antigen 19, Topiramate 8 μg/ml, Rabbit No. 5492
[21] = Antigen 19, Topiramate 16 μg/ml, Rabbit No. 5481
[22] = Antigen 19, Topiramate 16 μg/ml, Rabbit No. 5492
[23] = Antigen 19, Topiramate 32 μg/ml, Rabbit No. 5481
[24] = Antigen 19, Topiramate 32 μg/ml, Rabbit No. 5492
[25] = Antigen 20, Topiramate 2 μg/ml, Rabbit No. 5481
[26] = Antigen 20, Topiramate 2 μg/ml, Rabbit No. 5492
[27] = Antigen 20, Topiramate 4 μg/ml, Rabbit No. 5481
[28] = Antigen 20, Topiramate 4 μg/ml, Rabbit No. 5492
[29] = Antigen 20, Topiramate 8 μg/ml, Rabbit No. 5481
[30] = Antigen 20, Topiramate 8 μg/ml, Rabbit No. 5492
[31] = Antigen 20, Topiramate 16 μg/ml, Rabbit No. 5481
[32] = Antigen 20, Topiramate 16 μg/ml, Rabbit No. 5492
[33] = Antigen 20, Topiramate 32 μg/ml, Rabbit No. 5481
[34] = Antigen 20, Topiramate 32 μg/ml, Rabbit No. 5492

In the case of `CC1(C)O[C@@H]2[C@@H](CO[C@@]3(COS(N)(=O)=O)OC(C)(C)O[C@@H]23)O1` [Topiramate, 2,3:4,5-di-O-isopropylidene-beta-D-fructopyranose sulfamate], the “serum concentration with reduction in seizure control” value [1, 4] is listed as “greater than 75 μmol/L”, the “serum concentration with significant increase in side effects” value [1, 4] is listed as greater than 60 µM and the systemic topiramate concentrations ([1]; patients receiving considerably higher doses, up to 2000 mg) is listed as no more than 80 µmol/L. The “Rate (Delta Absorbance)” value ([2]; Topiramate 8 μg/ml sample) was 60, the “Rate (Delta Absorbance)” value ([2]; Topiramate 16 μg/ml sample) was 16 and the “Rate (Delta Absorbance)” value ([2]; Topiramate 32 μg/ml sample) was 4. It also gave an Abs [3, 5] of 0.29, a B/Bo [3, 5] of 0.38 and an Abs [3, 6] of 0.25. For the same compound, the B/Bo [3, 6] was 0.56, the Abs [3, 7] was 0.26 and the B/Bo [3, 7] was 0.34. The Abs [3, 8] was 0.20, the B/Bo [3, 8] was 0.44 and the Abs [3, 9] was 0.18. The B/Bo [3, 9] was 0.24, the Abs [3, 10] was 0.15 and the B/Bo [3, 10] was 0.33. For the same compound, the Abs [3, 11] was 0.15, the B/Bo [3, 11] was 0.20 and the Abs [3, 12] was 0.13. For the same compound, the B/Bo [3, 12] was 0.29, the Abs [3, 13] was 0.11 and the B/Bo [3, 13] was 0.14. For the same compound, the Abs [3, 14] was 0.01, the B/Bo [3, 14] was 0.02 and the Abs [3, 15] was 0.33. The B/Bo [3, 15] was 0.40, the Abs [3, 16] was 0.31 and the B/Bo [3, 16] was 0.38. The Abs [3, 17] was 0.25, the B/Bo [3, 17] was 0.30 and the Abs [3, 18] was 0.23. The B/Bo [3, 18] was 0.28, the Abs [3, 19] was 0.20 and the B/Bo [3, 19] was 0.24. For the same compound, the Abs [3, 20] was 0.19, the B/Bo [3, 20] was 0.23 and the Abs [3, 21] was 0.18. It also gave a B/Bo [3, 21] of 0.22, an Abs [3, 22] of 0.17 and a B/Bo [3, 22] of 0.20. The Abs [3, 23] was 0.15, the B/Bo [3, 23] was 0.18 and the Abs [3, 24] was 0.15. It also gave a B/Bo [3, 24] of 0.18, an Abs [3, 25] of 0.32 and a B/Bo [3, 25] of 0.53. For the same compound, the Abs [3, 26] was 0.45, the B/Bo [3, 26] was 0.64 and the Abs [3, 27] was 0.30. The B/Bo [3, 27] was 0.50, the Abs [3, 28] was 0.41 and the B/Bo [3, 28] was 0.59. It also gave an Abs [3, 29] of 0.25, a B/Bo [3, 29] of 0.42 and an Abs [3, 30] of 0.38. It also gave a B/Bo [3, 30] of 0.54, an Abs [3, 31] of 0.22 and a B/Bo [3, 31] of 0.37. It also gave an Abs [3, 32] of 0.38, a B/Bo [3, 32] of 0.54 and an Abs [3, 33] of 0.18. For the same compound, the B/Bo [3, 33] was 0.30, the Abs [3, 34] was 0.28 and the B/Bo [3, 34] was 0.40.
